What was measured:
[1] = Oral clearance in po dosed human; format: ADME, organism-based; conditions: in vivo
[2] = Unbound fraction in po dosed human plasma; format: ADME, organism-based
[3] = Ratio of drug level in blood to plasma in po dosed human; format: ADME, organism-based; conditions: blood and plasma, read-out: Rblood_plasma
[4] = Intrinsic clearance in human hepatocytes from chimeric mouse with humanized liver assessed per 10^6 cells at 10 uM after 0.25 to 2 hrs by LC-MS/MS method; format: ADME, cell-based, Hepatocyte; conditions: read-out: CLH
[5] = Total clearance in chimeric mouse with humanized liver at 3 mg/kg, iv by LC-MS/MS method; format: ADME, organism-based; design: dose 3 mg/kg, route intravenous; conditions: in vivo
in vivo = conditions: mouse, iv, 3 mg/kg
[6] = Unbound fraction in iv dosed human plasma; format: ADME, organism-based
[7] = Total clearance in chimeric mouse with humanized liver at 0.3 mg/kg, iv by LC-MS/MS method; format: ADME, organism-based; design: dose 0.3 mg/kg, route intravenous; conditions: in vivo
clinical = conditions: human, in vivo, iv
Description: Total clearance in iv dosed human

Row | SMILES | CL/F [1] [mL/min/kg] | fraction unbound [2] | blood plasma ratio [3] | hepatocyte CLint at 10 µM [4] [µL/min/1e6 cells] | clearance [5] [mL/min/kg] | half-life (in vivo) [min] | fraction unbound [6] | clearance [7] [mL/min/kg] | clearance (clinical) [mL/min/kg]
1 | Nc1nnc(-c2cccc(Cl)c2Cl)c(N)n1 [LAMOTRIGINE] | 0.3 | 0.45 | 1 | 1.4 | 1.4 | 606 |  |  | 
2 | O=C(O)Cc1ccccc1Nc1c(Cl)cccc1Cl [DICLOFENAC] |  |  |  | 24.7 | 16.4 | 36 |  |  | 
3 | CC1=C(CC(=O)O)c2cc(F)ccc2/C1=C\c1ccc([S+](C)[O-])cc1 (stereo not drawn) | 3.3 | 0.069 | 1 | 2 | 5.6 | 72 |  |  | 
4 | Nc1ccc(S(=O)(=O)c2ccc(N)cc2)cc1 [DAPSONE] |  |  |  | 2.3 | 2.1 |  |  |  | 
5 | CC(C)(C)NCC(O)c1ccc(O)c(CO)c1 (stereo not drawn) [ALBUTEROL] |  |  |  |  |  |  | 0.925 |  | 
6 | CN1CCN2c3ncccc3Cc3ccccc3C2C1 (stereo not drawn) [MIRTAZAPINE] |  |  |  | 6.3 | 30.4 |  |  |  | 
7 | CC(=O)C[C@@H](c1ccccc1)c1c(O)c2ccccc2oc1=O |  |  |  | 1.2 |  |  | 0.015 | 0.2 | 0.055
8 | Nc1ncc2ncn(CCC(CO)CO)c2n1 [6-DEOXY PENCICLOVIR] | 118 | 1 | 1.2 | 5.3 | 71.2 | 6 |  |  | 
9 | O=S(=O)(c1cccc2cnccc12)N1CCCNCC1 [FASUDIL] |  |  |  |  |  |  | 0.51 |  | 
10 | CCN(C(C)=O)c1cccc(-c2ccnc3c(C#N)cnn23)c1 [ZALEPLON] |  |  |  | 2.3 | 48.1 |  |  |  | 

Source: ChEMBL document CHEMBL3526103, “Prediction of in vivo hepatic clearance and half-life of drug candidates in human using chimeric mice with humanized liver” (Drug Metab Dispos, 2012)
